Reference: US20220340629A1, “Myosin Derived Peptides and Related Compounds with Anticoagulant Activities” (THE SCRIPPS RESEARCH INSTITUTE, priority 0001, published 2022)
Read-outs that look alike come from different tables or passages of the source. Blank lines part the entries; values can stand above or below the molecule they belong to. Non-standard residues stand in square brackets, D forms with d. Residues, ends and D or L forms follow the SMILES beside them. No end group written: not given here. *: point of attachment. Arachidoyl = CCCCCCCCCCCCCCCCCCCC(=O)*; NMeN = CN[C@@H](CC(N)=O)C(=O)O; Nle = CCCC[C@H](N)C(=O)O

Tests used:
[1] = Metabolite identification after incubation in mouse plasma; format: in vitro ADME; settings: incubated in mouse plasma, FIG. 8
[2] = molecular target: phospholipid-supported prothrombin activation by factors Xa and Va (Homo sapiens, UniProt P00742); assay: Assay 1C: phospholipid vesicle (PC/PS 80%/20%)-supported prothrombin activation; format: biochemical
Sequence of phospholipid-supported prothrombin activation by factors Xa and Va (P00742 41-179 limits assumed): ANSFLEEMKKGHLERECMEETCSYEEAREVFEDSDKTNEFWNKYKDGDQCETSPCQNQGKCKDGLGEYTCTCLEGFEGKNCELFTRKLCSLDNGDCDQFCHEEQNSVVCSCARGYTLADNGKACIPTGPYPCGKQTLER
Sequence of phospholipid-supported prothrombin activation by factors Xa and Va (P00742 235-488 limits assumed): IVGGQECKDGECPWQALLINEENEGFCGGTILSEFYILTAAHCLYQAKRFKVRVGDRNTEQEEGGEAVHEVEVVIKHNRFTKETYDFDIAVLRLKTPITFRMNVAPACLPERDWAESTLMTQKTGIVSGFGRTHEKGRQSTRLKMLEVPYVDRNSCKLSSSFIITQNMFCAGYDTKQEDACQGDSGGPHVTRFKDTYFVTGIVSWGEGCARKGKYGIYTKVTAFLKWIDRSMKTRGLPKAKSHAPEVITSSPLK

[3] = molecular target: skeletal muscle myosin-supported prothrombin activation by factors Xa and Va (Homo sapiens, UniProt P00742); assay: Assay 1A: prothrombin activation by factor Xa/factor Va/myosin in purified system; format: biochemical, human factors Xa and Va; rabbit skeletal muscle myosin; settings: purified system
Sequence of skeletal muscle myosin-supported prothrombin activation by factors Xa and Va (Homo sapiens, UniProt P00742) (P00742 41-179): as the sequence (P00742 41-179 limits assumed) above
Sequence of skeletal muscle myosin-supported prothrombin activation by factors Xa and Va (Homo sapiens, UniProt P00742) (P00742 235-488): as the sequence (P00742 235-488 limits assumed) above
Sequence of skeletal muscle myosin-supported prothrombin activation by factors Xa and Va (Homo sapiens, UniProt P00742) (P12259 29-737 partner): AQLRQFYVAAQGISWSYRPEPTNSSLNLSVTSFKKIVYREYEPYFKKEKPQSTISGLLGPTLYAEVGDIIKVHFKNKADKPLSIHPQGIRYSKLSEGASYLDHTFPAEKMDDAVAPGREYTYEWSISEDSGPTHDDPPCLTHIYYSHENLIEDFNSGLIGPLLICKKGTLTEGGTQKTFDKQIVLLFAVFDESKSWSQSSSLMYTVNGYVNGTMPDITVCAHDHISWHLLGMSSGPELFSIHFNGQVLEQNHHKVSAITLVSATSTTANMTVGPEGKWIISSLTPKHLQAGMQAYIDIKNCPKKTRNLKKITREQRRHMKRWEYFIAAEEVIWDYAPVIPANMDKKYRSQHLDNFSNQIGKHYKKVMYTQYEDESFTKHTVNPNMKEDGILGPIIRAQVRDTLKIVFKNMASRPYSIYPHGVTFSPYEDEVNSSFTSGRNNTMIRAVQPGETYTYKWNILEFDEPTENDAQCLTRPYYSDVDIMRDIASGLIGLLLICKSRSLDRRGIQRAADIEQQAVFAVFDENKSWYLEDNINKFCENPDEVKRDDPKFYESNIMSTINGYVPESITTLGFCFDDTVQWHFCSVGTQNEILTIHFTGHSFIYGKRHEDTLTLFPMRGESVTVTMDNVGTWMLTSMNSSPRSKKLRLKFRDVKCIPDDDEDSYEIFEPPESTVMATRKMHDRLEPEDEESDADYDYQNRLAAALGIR
Sequence of skeletal muscle myosin-supported prothrombin activation by factors Xa and Va (Homo sapiens, UniProt P00742) (P12259 1574-2224 partner): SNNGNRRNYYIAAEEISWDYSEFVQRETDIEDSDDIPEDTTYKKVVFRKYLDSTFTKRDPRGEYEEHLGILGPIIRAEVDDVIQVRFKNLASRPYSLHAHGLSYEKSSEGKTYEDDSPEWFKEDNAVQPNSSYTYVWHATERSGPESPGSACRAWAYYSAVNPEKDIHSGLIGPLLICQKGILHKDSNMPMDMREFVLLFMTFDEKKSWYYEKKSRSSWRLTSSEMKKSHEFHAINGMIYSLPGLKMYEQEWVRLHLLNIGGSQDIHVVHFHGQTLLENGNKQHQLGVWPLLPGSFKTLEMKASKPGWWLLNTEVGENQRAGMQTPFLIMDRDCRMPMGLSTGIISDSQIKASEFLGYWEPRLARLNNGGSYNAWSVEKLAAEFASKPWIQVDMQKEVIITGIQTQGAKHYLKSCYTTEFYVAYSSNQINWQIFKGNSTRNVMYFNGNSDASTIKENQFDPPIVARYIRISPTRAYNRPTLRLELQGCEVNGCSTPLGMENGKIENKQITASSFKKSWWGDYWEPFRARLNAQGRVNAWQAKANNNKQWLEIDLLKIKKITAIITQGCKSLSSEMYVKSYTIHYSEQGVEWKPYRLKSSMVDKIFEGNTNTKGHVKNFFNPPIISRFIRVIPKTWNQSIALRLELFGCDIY

[4] = tested on: thrombin generation in human platelet poor plasma with skeletal muscle myosin; assay: Assay 2A: thrombin generation, recalcification of human platelet poor plasma + myosin; format: biochemical; settings: human platelet poor plasma 30%, myosin 50 nM, CaCl2 10 mmol/L; read-out: 2A (recalcification +myosin)
Summary of the method: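 Pooled normal human platelet-poor plasma (30%) preincubated 5 min at 37° C with 50 nM skeletal muscle myosin and peptide in DMSO. Coagulation triggered with 10 mmol/L CaCl2 plus fluorogenic Z-Gly-Gly-Arg-AMC; thrombin generation followed 25 min (ex 360/em 460 nm). IC50 = peptide concentration giving 50% inhibition of thrombin generation.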

[5] = tested on: thrombin generation in human whole blood; assay: Assay 4: thrombin generation in recalcified human whole blood; format: biochemical
Procedure: In addition to purified protein system and human plasma, assays using whole blood (Assay 4) were also performed to examine anti-coagulant activities of the peptides and derivative compounds. In these assays, freshly drawn anticoagulated human whole blood (80 μL aliquot) was incubated with peptide in DMSO or DMSO alone (control) for 5 min at 37° C. Then, fluorogenic thrombin substrate solution (Z-Gly-Gly-Arg-AMC) (I-1140) with 10 mmol/L CaCl2 (final) alone was added to the reaction mixture (total 110 μl) in 96 well plate to initiate coagulation. Thrombin generation was followed continuously for 25 min using SPECTRAmax GEMINI XS fluorometer (Molecular Devices, Sunnyvale, Calif.) with excitation and emission wavelengths set at 360 and 460 nm, respectively. The first derivative of fluorescence versus time was used to produce thrombin generation curves with the correction for substrate consumption and inner filter effect. IC50 were determined using a curve fit program in Prism7.0 (GraphPad Software, San Diego, Calif.).

[6] = tested on: thrombin generation in human plasma; assay: Thrombin generation assay in pooled normal human plasma (Examples 3 and 4); format: biochemical; settings: screened at 25 μM, FIG. 3A
Procedure: Thrombin generation assay in pooled human plasma: The effect of synthetic peptides on thrombin generation in pooled normal human plasma (George King Bio-medical, Inc., Overland Park, KS) was tested as described (1,11). Briefly, normal human plasma (30 μl) was mixed with CTI, followed by the addition of peptide. Then, tissue factor (TF) (Innovin) (0.5[…] pM final) containing 30 mM Ca^++ in TBSA with fluorogenic thrombin substrate solution (I-1140) (Bachem Americas, Inc., Torrance, Calif.) were added to the plasma to initiate coagulation activation. The first derivative of the time course data for substrate hydrolysis yielded the thrombin generation curve, allowing measurement of thrombin generation during the initiation, propagation and termination phases of thrombin generation and the value for peak thrombin generated.

[7] = molecular target: T1, prothrombin activation by factor Xa and factor Va (no myosin) (Homo sapiens, UniProt P00742); assay: Assay 1B: prothrombin activation by factor Xa/factor Va, no myosin; format: biochemical; settings: for inhibition of prothrombin activation in the absence of myosin: FIG. 4, peptide 0-300 μM
T1 construct: the same reaction mixture of factor Xa, factor Va and prothrombin
T1 sequence (P00742 41-179 limits assumed): as the sequence (P00742 41-179 limits assumed) above
T1 sequence (P00742 235-488 limits assumed): as the sequence (P00742 235-488 limits assumed) above

[8] = tested on: skeletal muscle myosin-supported prothrombin activation by factors Xa and Va; assay: Assay 1A: prothrombin activation by factor Xa/factor Va/myosin in purified system; format: biochemical, human factors Xa and Va; rabbit skeletal muscle myosin; settings: for IC50: dose-dependency assays, FIG. 2A, myosin 2 nM, read-out: IC50, inhibition of myosin-supported prothrombin activation; for inhibition of myosin-supported prothrombin activation at 5 μM: peptide 5 μM; for inhibition of myosin-supported prothrombin activation at 5 μM / inhibition of myosin-supported prothrombin activation at 100 μM: FIG. 1A; for inhibition of myosin-supported prothrombin activation at 100 μM: peptide 100 μM; for inhibition of myosin-supported prothrombin activation: dose-dependent studies, FIG. 4, TFP 0-100 μM, ELC peptides 0-300 μM
Human factor Xa [9] = molecular target: T2, Human factor Xa (human, UniProt P00742 41-179; P00742 235-488, limits assumed); assay: cell-based or functional assay
T2 sequence (P00742 41-179 limits assumed, form in doubt, chain 1 of 2): as the sequence (P00742 41-179 limits assumed) above
T2 sequence (P00742 235-488 limits assumed, form in doubt, chain 2 of 2): as the sequence (P00742 235-488 limits assumed) above

Human factor Xa [10] = molecular target: T2, Human factor Xa; assay: cell-based or functional assay; remark: listed apart in the source
[11] = skeletal muscle myosin, factor Va 5 nM, factor Xa 0.2 nM, prothrombin 0.75 μM, 10 min, read-out: 1A (+myosin)

sites of protease cleavage identified from metabolite identification [1]: six | 1C (+phospholipid) ([2]; phospholipid vesicle 4 μM, PS 20%/PC 80%, result in words): No activity | IC50 [3, 11]: 1100 nM
Molecule: CC[C@H](C)[C@H](NC(=O)[C@H](C)N)C(=O)N[C@@H](Cc1ccccc1)C(=O)N[C@@H](CS)C(=O)N[C@H](C(=O)N[C@@H](CCC(N)=O)C(=O)N[C@@H](Cc1ccc(O)cc1)C(=O)N[C@@H](CC(N)=O)C(=O)N[C@H](C(=O)N[C@@H](CCCNC(=N)N)C(=O)N[C@@H](CO)C(=O)N[C@@H](Cc1ccccc1)C(=O)N[C@@H](CCSC)C(=O)N[C@@H](CC(N)=O)C(=O)N[C@H](C(=O)N[C@@H](CCCCN)C(=O)N[C@@H](Cc1c[nH]cn1)C(=O)N[C@@H](Cc1c[nH]c2ccccc12)C(=O)N1CCC[C@H]1C(=O)N[C@@H](Cc1c[nH]c2ccccc12)C(=O)N[C@@H](CCSC)C(=O)N[C@@H](CCCCN)C(N)=O)C(C)C)[C@@H](C)CC)[C@@H](C)CC [HC060] (H-AIFCIQYNIRSFMNVKHWPWMK-NH2)

IC50 [4]: 8300 nM | IC50 [3, 11]: 400 nM
Molecule: CCCC[C@H](NC(=O)[C@H](Cc1c[nH]c2ccccc12)NC(=O)[C@@H]1CCCN1C(=O)[C@H](Cc1c[nH]c2ccccc12)NC(=O)[C@H](Cc1c[nH]cn1)NC(=O)[C@H](CCCCN)NC(=O)[C@@H](NC(=O)[C@H](CC(N)=O)NC(=O)[C@H](CCCC)NC(=O)[C@H](Cc1ccccc1)NC(=O)[C@H](CO)NC(=O)[C@H](CCCNC(=N)N)NC(=O)[C@@H](NC(=O)[C@H](CC(N)=O)NC(=O)[C@H](Cc1ccc(O)cc1)NC(=O)[C@H](CCC(N)=O)NC(=O)[C@@H](NC(=O)[C@@H](NC(=O)[C@H](Cc1ccccc1)NC(=O)[C@@H](NC(=O)[C@H](C)N)[C@@H](C)CC)[C@@H](C)O)[C@@H](C)CC)[C@@H](C)CC)C(C)C)C(=O)N[C@@H](CCCCN)C(N)=O [HC179] (H-AIFTIQYNIRSF[Nle]NVKHWPW[Nle]K-NH2; N-terminus assumed)
4 (recalcification), result in words ([5]; result in words): No activity

IC50 ([7]; purified system, no myosin): 10800 nM | IC50 ([2]; PC/PS vesicles 4 μM, read-out: IC50, phospholipid vesicles containing 20% phosphatidylserine-supported prothrombin activation): 104000 nM | IC50 ([2]; purified system, phospholipid vesicles, read-out: 1C (+phospholipid)): 7500 nM | IC50 ([3]; prothrombin activation with myosin, read-out: 1A (+ myosin) IC50): 1990 nM | IC50 [8]: 2300 nM
Molecule: CC[C@H](C)[C@H](NC(=O)[C@H](C)NC(=O)[C@@H](N)CCC(=O)O)C(=O)N[C@@H](Cc1ccccc1)C(=O)N[C@@H](CS)C(=O)N[C@H](C(=O)N[C@@H](CCC(N)=O)C(=O)N[C@@H](Cc1ccc(O)cc1)C(=O)N[C@@H](CC(N)=O)C(=O)N[C@H](C(=O)N[C@@H](CCCNC(=N)N)C(=O)N[C@@H](CO)C(=O)N[C@@H](Cc1ccccc1)C(=O)N[C@@H](CCSC)C(=O)N[C@@H](CC(N)=O)C(=O)N[C@H](C(=O)N[C@@H](CCCCN)C(=O)N[C@@H](Cc1c[nH]cn1)C(=O)N[C@@H](Cc1c[nH]c2ccccc12)C(=O)N1CCC[C@H]1C(=O)N[C@@H](Cc1c[nH]c2ccccc12)C(=O)N[C@@H](CCSC)C(=O)N[C@@H](CCCCN)C(=O)N[C@@H](CC(C)C)C(=O)N[C@@H](Cc1ccccc1)C(=O)N[C@@H](Cc1ccccc1)C(=O)N[C@@H](CCCCN)C(=O)N[C@H](C(=O)N[C@@H](CCCCN)C(=O)N1CCC[C@H]1C(=O)N[C@@H](CC(C)C)C(=O)N[C@@H](CC(C)C)C(=O)N[C@@H](CCCCN)C(=O)N[C@@H](CO)C(=O)N[C@@H](C)C(=O)N[C@@H](CCC(=O)O)C(=O)N[C@H](C(=O)N[C@@H](CCC(=O)O)C(=O)N[C@@H](CCCCN)C(=O)N[C@@H](CCC(=O)O)C(N)=O)[C@@H](C)O)[C@@H](C)CC)C(C)C)[C@@H](C)CC)[C@@H](C)CC [HC815-854] (H-EAIFCIQYNIRSFMNVKHWPWMKLFFKIKPLLKSAETEKE-NH2)
inhibition of thrombin generation in human plasma [6]: significantly inhibited | inhibition of myosin-supported prothrombin activation at 5 μM [8]: inhibitory, to varying degrees | inhibition of myosin-supported prothrombin activation at 100 μM [8]: inhibited

IC50 [4]: 1700 nM | IC50 ([5]; CaCl2 10 mmol/L, read-out: 4 (recalcification)): 300 to 4000 nM
Molecule: CCCCCCCCCCCCCCCCCCCC(=O)NCCCC[C@H](NC(=O)[C@H](CCCNC(=N)N)NC(=O)[C@@H](NC(=O)[C@H](CC(N)=O)NC(=O)[C@H](Cc1ccc(O)cc1)NC(=O)[C@H](CCC(N)=O)NC(=O)[C@@H](NC(=O)[C@H](CO)NC(=O)[C@H](Cc1ccccc1)NC(=O)[C@@H](NC(=O)[C@H](C)N)[C@@H](C)CC)[C@@H](C)CC)[C@@H](C)CC)C(=O)N[C@@H](Cc1ccccc1)C(=O)N[C@@H](CCCC)C(=O)N(C)[C@@H](CC(N)=O)C(=O)N[C@H](C(=O)N[C@@H](CCCCN)C(=O)N[C@@H](Cc1c[nH]cn1)C(=O)N[C@@H](Cc1c[nH]c2ccccc12)C(=O)N1CCC[C@H]1C(=O)N[C@@H](Cc1c[nH]c2ccccc12)C(=O)N[C@@H](CCCC)C(=O)N[C@@H](CCCCN)C(=O)N[C@@H](CCCCN)C(=O)N[C@@H](CCCCN)C(=O)N[C@@H](CCCCN)C(=O)N[C@@H](CCCCN)C(N)=O)C(C)C [SL-1504-074A, AIFSIQYNIRXF(Nle)(N-MeN)VKHWPW(Nle)KKKKK] (H-AIFSIQYNIRK(Arachidoyl)F[Nle][NMeN]VKHWPW[Nle]KKKKK-NH2)

inhibitory effects on phospholipid-supported prothrombin activation ([2]; compared with effects on myosin-supported prothrombin activation): not apparent | IC50 [8]: 26000 nM
Molecule: QEEIKNMWAAFPPDVGGNVDYKNICYVITH [RLC133-162]
inhibition of myosin-supported prothrombin activation at 5 μM [8]: inhibitory, to varying degrees | inhibition of myosin-supported prothrombin activation at 100 μM [8]: inhibited

inhibition of prothrombin activation in the absence of myosin [7]: inhibited
Molecule: RVFDKEGNGTVMGAELRHVL [ELC138-157]
inhibition of myosin-supported prothrombin activation [8]: inhibited

inhibition of prothrombin activation in the absence of myosin [7]: did not
Molecule: YEDFVEGLRVFDKEGN [ELC129-144, Ac-YEDFVEGLRVFDKEGN-NH2]
inhibition of myosin-supported prothrombin activation [8]: inhibited

IC50, Assay 1A (+myosin): prothrombin activation by factor Xa/factor Va/myosin in purified system (Human factor Xa [9]): 1300 nM | IC50, inhibition of myosin-supported prothrombin activation by purified factor Xa, factor Va and Ca++ ions (Human factor Xa [10]): 1200 nM
Molecule: ARCRGFLARVEYQRMVERREAIFCIQYNIRSFMNVKHWPW-NH2 (cysteine pairing not given here, Synthetic 40-mer; also called HC061) [Peptide HC796-835 (human skeletal muscle myosin heavy chain MYH2 residues 796-835)]
